Data on two sequences can be found in patent US20250221936A1, “ENGINEERED HEMICHANNELS, ENGINEERED VESICLES, AND USES THEREOF” (VIRGINIA TECH INTELLECTUAL PROPERTIES, INC., priority 2018, published 2025).

Entries after “also recorded” stand apart in the source; their conditions may differ. Like-named read-outs stand apart in the source and are kept apart here.

Data set [1] deals with Cx43-Hela cells. Description: Cx43 and ZO-1 immunofluorescent labeling. The data set is classed as cell-based. The conditions noted are these: 10 μM for 2, 4, 24, or 48 hours. As to the method: Given that the 10UM concentration of peptide was not toxic to cells, the inventors treated Cx43-Hela cells with 10 μM JM1 or JM2 for 2, 4, 24, or 48 hours followed by fixation and immunofluorescent labeling of Cx43 and ZO-1. Said peptides can be loaded into the provided EVs and can elicit results similar to those observed for naked peptide as follows. […] However, the most striking effects were on ZO-1 organization. In control cells ZO-1 localized to cell borders, often at sites of small, finger-like projections between the cells. Cytoplasmic ZO-1 was also notable. In JM-treated cells a strong contrast in the ratio of cell border to cytoplasmic ZO-1 was found, with relative levels at cell borders being increased over controls. […] There was also a noticeable increase in the number of cells per area of field, supporting the earlier observation that JM2 treated cells appeared to proliferate and survive at an increased rate.

Data set [2] relates to silicon wafer implants. As to conditions: 24 hours; cited from earlier work.
Data set [3] relates to Cx43-HeLa. It counts as cell-based. As to the method:
The first tests of JM1 and JM2 were performed and the experiments centered on the basic cell biology of the peptides.

Data set [4] has as its system porcine kidney. The conditions noted are these: 100 μm in Belzer's solution, on ice 24 h; cited from earlier work.
For data set [5], the system named is heart allograft. As to conditions: 100 μM in UW solution, cited from earlier work.
In data set [6] the target is T1, PKC-ε (Homo sapiens, UniProt Q02156).
T1 construct: purchased Life 37717L
T1 sequence (Q02156 1-737): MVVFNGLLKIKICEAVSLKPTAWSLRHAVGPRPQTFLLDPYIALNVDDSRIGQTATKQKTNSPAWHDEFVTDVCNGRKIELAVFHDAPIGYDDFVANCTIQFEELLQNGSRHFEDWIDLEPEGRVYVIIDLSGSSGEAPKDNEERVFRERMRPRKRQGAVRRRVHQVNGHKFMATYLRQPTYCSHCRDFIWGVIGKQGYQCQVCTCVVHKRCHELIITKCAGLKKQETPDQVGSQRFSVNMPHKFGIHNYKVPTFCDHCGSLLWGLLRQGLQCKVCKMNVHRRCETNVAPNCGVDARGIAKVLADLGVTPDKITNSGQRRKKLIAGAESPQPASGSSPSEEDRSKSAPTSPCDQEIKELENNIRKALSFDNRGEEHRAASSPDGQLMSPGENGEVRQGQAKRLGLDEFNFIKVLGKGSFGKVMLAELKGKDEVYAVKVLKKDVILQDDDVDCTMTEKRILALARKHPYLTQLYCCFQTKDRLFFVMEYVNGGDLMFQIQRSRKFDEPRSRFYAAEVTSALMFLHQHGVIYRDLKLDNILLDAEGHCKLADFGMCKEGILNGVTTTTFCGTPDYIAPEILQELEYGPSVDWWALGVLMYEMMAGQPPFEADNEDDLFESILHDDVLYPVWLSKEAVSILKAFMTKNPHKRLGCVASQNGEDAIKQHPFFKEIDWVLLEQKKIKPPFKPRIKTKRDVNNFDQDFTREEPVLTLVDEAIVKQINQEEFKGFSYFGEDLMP
Description: EDC cross-linking and MS/MS, PKC-ε. It counts as binding. As to the method:
To characterize the interaction between the Cx43 CT substrate and peptides, the in vitro kinase assay was performed as above with modification and the constituents then subjected to a cross-linking reaction. The assay buffer used was 20 mM 3-(N-morpholino) propanesulfonic acid (MOPS), pH 7.2. All other reagents present in the kinase reaction were maintained as described above. The reaction was allowed to proceed at 37° C. for 15 minutes. Afterwards, the carbodiimide crosslinker 1-Ethyl-3-(3-dimethylaminopropyl) carbodiimide HCl (EDC) (Thermo, 22980) was added to each solution for a final concentration of 20 mM. The solution was allowed to cross-link for one hour at room temperature. The reaction was stopped by the addition of 4×LDS loading buffer, boiled for 5 minutes and subsequently separated by PAGE. The resulting gel was stained in Coomassie brilliant blue (Sigma, B0770) for two hours and destained in a solution of 4% methanol 7% acetic acid overnight. Gel bands were subsequently excised for mass spectrometric analysis. For the direct interaction between protein and peptides, PBS, pH 7.5 was used as the coupling buffer. The protein (50 μg/ml) and peptide (25 μM) were allowed to react at room temperature for one hour before EDAC was added to the reaction mixture. The reaction was Western blotted for Cx43, GST or NeutroAvidin. […]

Data set [7] deals with cornea. As to conditions: rat, in vivo; cited from earlier work.
In data set [8] the test system is chronic, slow healing skin wounds. The conditions noted are these: diabetic foot ulcers and venous leg ulcers; cited from earlier work.
Data set [9] deals with 8 mm diameter round wound. The conditions noted are these: cited from earlier work.
Data set [10] deals with cryo-injured LV wall. The conditions noted are these: cited from earlier work; for LV function: 8 week time course; for Cx43 in myocytes bordering the injury: mouse, in vivo; for arrhythmias: pacing and S1-S2 protocols.
Data set [11] deals with cerebral lesion. As to conditions: 100 μM in 2% collagen within HFM; cited from earlier work.

Turning to VFFKGVKDRVKGRSD [JM2], in [1], the “Cx43 and ZO-1 localization” value is reported as “greater cytoplasmic Cx43 was observed; also recorded: well defined cell-cell interfaces”. Further, the tissue reaction zone entry in data set [2] is on record as “substantially narrower tissue reaction zone”. In addition, in [3], the “toxicity (cell death)” value is given as “no obvious toxicity”. In addition, in [3] (24 hours), the confluence entry is on record as “more confluent than control cells”.
Turning to RQPKIWFPNRRKPWKKRPRPDDLEI [alpha CT1], in data set [4], the Cx43 staining result is “Punctate Cx43 staining in the membrane (gap junctions) were preserved” and the nitrotyrosine staining result is given as “no changes in nitrotyrosine staining in the presence of ACT1 peptide”. For the same sequence, the “Evan's Blue sequestration into the transplanted heart” value in data set [5] (6 h at 4° C., 30 mins post reperfusion) is recorded as “significantly reduces Evan's Blue sequestration into the transplanted heart”. Besides, the “graft injury, serum cardiac troponin I, neutrophils” value in data set [5] (6 hrs at 4° C.) is “significantly reduced cardiac injury, reduced serum cardiac troponin I and significantly reduced neutrophils”. In addition, the “interaction with PKC-ε” value in data set [6] is “no evidence for interaction between PKCE and alpha CT1”. Also, the “corneal closure and regeneration” value in [7] is “faster closure and more complete corneal regeneration than control corneas”. Further, the “healing of skin wounds” value in data set [8] was “high level of efficacy in promoting the healing of two types of chronic, slow healing skin wounds; also recorded: increased the healing rate of slow-healing skin wounds”. The scar size result in [9] (150 μM peptide, collagen gel, 30 days) is “significantly (p<0.05) smaller than the controls”. For the same sequence, in [9] (rat, in vivo), the wound closure rate entry is given as “consistent significantly faster closure rates than the other 4 wounds”. Besides, in data set [10], the LV function entry is reported as “sustained improvements in ventricular contractile performance over an 8-week study period”, the “Cx43 in myocytes bordering the injury” value is reported as “reduced Cx43 GJ remodeling in injury border zone tissues” and the arrhythmias result was “decreased propensity of the injured hearts to develop inducible arrhythmias”. In addition, in [10] (listed as ACTI), the LV function result was “significant improvement in LV diastolic and systolic function”; the “Cx43 in myocytes bordering the injury” value is “higher and more uniform, intercalated-disk-localized and pS368 phosphorylated Cx43”; the arrhythmias entry is “dramatically reduced (p<0.05) frequency and severity of arrhythmias”. Further, the “density of GFAP-positive astrocytes” value in [11] is “much lower density of GFAP-positive astrocytes”.
